Source: PubChem BioAssay (NCI)
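Method: 48-hour compound exposure of cells in 96-well plates, five concentrations, linear interpolation of endpoints. At the GI50, growth is halved. TGI: concentration producing complete growth inhibition.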

Columns and labels:
Assay in all cases: NCI-60 cell line screen, 48 h
A498 renal = test system: A498 renal
HCT-116 colon = test system: HCT-116 colon
HL-60(TB) leukemia = test system: HL-60(TB) leukemia
NCI-H226 lung = test system: NCI-H226 lung
OVCAR-4 ovarian = test system: OVCAR-4 ovarian
SK-MEL-28 melanoma = test system: SK-MEL-28 melanoma
SNB-19 CNS = test system: SNB-19 CNS
SNB-75 CNS = test system: SNB-75 CNS
SR leukemia = test system: SR leukemia
UO-31 renal = test system: UO-31 renal

Structure (SMILES)	TGI (A498 renal) [µM]	TGI (HCT-116 colon) [µM]	TGI (HL-60(TB) leukemia) [µM]	TGI (NCI-H226 lung) [µM]	TGI (OVCAR-4 ovarian) [µM]	TGI (SK-MEL-28 melanoma) [µM]	TGI (SNB-19 CNS) [µM]	TGI (SNB-75 CNS) [µM]	TGI (SR leukemia) [µM]	TGI (UO-31 renal) [µM]	GI50 (A498 renal) [µM]	GI50 (HCT-116 colon) [µM]	GI50 (HL-60(TB) leukemia) [µM]	GI50 (NCI-H226 lung) [µM]	GI50 (OVCAR-4 ovarian) [µM]	GI50 (SNB-19 CNS) [µM]	GI50 (SNB-75 CNS) [µM]	GI50 (SR leukemia) [µM]	GI50 (UO-31 renal) [µM]	GI50 (SK-MEL-28 melanoma) [µM]
COc1ccc2c(=O)c([Se]c3coc4cc(OC)ccc4c3=O)coc2c1	> 100	44.1	> 100	> 100	> 100	> 100	> 100	87.5	> 100	> 100										
CC(C)c1cc(C(C)C)c(S(=O)(=O)NN)c(C(C)C)c1	> 100	> 100			> 100	> 100	> 100	> 100	> 100											
CCN1CCN(CCOc2ccc(CNc3ccc4nc(CCC5CCCCC5)[nH]c4c3)cc2)CC1	3.35	2.87	3.92	4.94	11.1		13	4.07	0.941	2.79	1.44	1.32	1.87	1.99	2.61	3.58	1.66	0.303	1.42	
CC(=O)NNc1nc(C)c(C(=O)NNC(=O)C(=O)Nc2ccc(C)c(C)c2)s1	> 100	> 100	> 100	> 100	> 100	> 100	> 100	> 100	> 100	> 100										
Cc1cccc(CN(C)c2ccc(CO)c(Cl)c2)c1	0.184	12.3	82.6	0.279	25.3	> 76.1	> 100	80	> 73.8	64.3	0.0433	0.549	23.8	0.123	2.61	28.4	18.8	24.7	11.9	19.3
CCCCCCN(CCCCCC)CCCNc1nccc2ccccc12	2.8	2.2	4.26	3.5	7.72	3.17	6.01	4.22	4.6	3.04	1.08	0.832	1.77	1.61	2.09	2.09	1.65	1.65	1.35	1.64
O=C1NC(=NCC(CO)c2ccccc2)S/C1=C\c1ccc2ncccc2c1 (stereo unspecified)	> 25	> 25	> 25	> 25	> 25	> 25	> 25	> 25	> 22.7	> 25	> 15.3	8.51	8.34	> 25	> 22.1	> 25	> 7	4.49	> 25	> 25
CCOC(=O)CC(=O)ON(C)C(=O)Cc1ccccc1	> 100	> 100	> 100	> 100	> 100		> 100		> 100	> 100										
c1cncc(CNc2ccccc2-c2nnc(Nc3ccc4c(c3)OCO4)o2)c1	> 100	> 100	0.147		> 100	> 100	> 100	> 100	> 100	> 100	0.0199	0.0516	0.0259		1	0.112	0.0246	0.0361	0.31	0.0654
COc1ccc(/C=C2\N=C(c3ccccc3)OC2=O)c(OCc2ccccc2)c1	68.5	> 100	> 100	> 100	47.7	> 100	94.3		> 100	> 100										
Fc1ccc(-c2nc(-c3nc4ccc(Cl)cc4[nH]3)cc3c2[nH]c2ccccc23)cc1	9.71	12.5	17.8	15.5	17.2	14.9	> 100		> 100	10.7	2.01	3.29	4.32	3.34	4.81	4.27		3.71	2.4	4.25
C=CCN1C(=O)/C(=c2\sc3n(c2=O)C2C(NN=3)N(CC)C(=O)N2CC)c2ccccc21 (stereo unspecified)	1.17	> 100	2.05	> 100	> 100	> 100	> 74.9	2.98	> 100		0.246	0.403	0.315	2.19	1.03	0.973	0.254	0.38		5.36
Cc1cc(C)nc(NS(=O)(=O)c2ccc(Nc3c4ccccc4nc4c(C(=O)NCCN(C)C)ccc(Cl)c34)cc2)n1		7.23	7.6	2.77	4.8	17.9	6.08	11	5.46	4.62										
Cc1ccc(/C=C(\C#N)n2nnc3cc(Cl)c(Cl)cc32)cc1	4.59	3	6.94	> 100	81.5	4.77		9.74	40.6	3.35	1.91	1.54	1.78	2.88	2.69		1.57	0.417	1.59	2.05
CN(C)CC(C(=O)c1ccccc1)c1ccccc1 (stereo unspecified)	18.4	2.2	8.22	7.79		13.6	19.4	14.4	7.51	3.02	4.44	1.03	3.17	2.42		6.1	3.54	2.28	1.49	4.13
